Data as given in patent US12207655B2, “Protoporphyrin IX derivatives and use thereof to improve the health of plants” (priority 2019, dated 2025).

Assays:
[1] = system: Sclerotinia homoeocarpa; assay: Control of dollar spot fungus: radial growth of fungal plugs on PDA after treatment in PBS, dark vs light; assay type: cell-based; settings: 31 μM + 0.21% BrijO10:ArlasolveDMI (1:4); for Mean Radial Growth: growth between 24 and 48 hours at 21° C; for % Inhibition: relative to non-amended control
Method: In this example, control of dollar spot fungus (Sclerotinia homoeocarpa) with PP IX and modified PP IX was assessed. Treatments were prepared in Phosphate Buffered Saline (PBS) in 24 well plates (in duplicates for light vs. dark incubation) at desired concentrations. Then, a 5 mm diameter plug of a Sclerotinia homoeocarpa isolate (3 isolates total tested) was inoculated into the PBS and incubated at 21° C. in the dark for 2 hours. After 2 hours, one of the 24 well plates (with isolates in triplicate) was left in the dark and one 24 well plate was placed under illumination for 1 hour (all at […]). Following illumination, fungal plugs were removed from PBS, blotted dry on sterile filter paper and transferred to non-amended Potato Dextrose Agar (PDA). Radial growth of the fungus was monitored daily until the growth of S. homoeocarpa reaches the edge of the Petri-dish. Illumination was provided by LED lights emitting about 1000 μmol/m2/s photosynthetically active radiation (PAR).

[2] = system: Pseudomonas syringae pv. tabaci; assay: Photodynamic control of Pseudomonas syringae pv. tabaci in PBS, colony counts after illumination; assay type: cell-based; settings: 30 min dark then 1 hour illumination (about 1000 μmol/m2/s PAR), PBS control 8.7
Method: In this example, control of the gram-negative bacterial plant pathogen Pseudomonas syringae pv. tabaci with PP IX and modified PP IX was assessed, with and without chelating agents. Treatments were prepared in Phosphate Buffered Saline (PBS) in 96 well plates at desired concentrations. A bacterial suspension was inoculated into the PBS and incubated at 28° C. in the dark for 30 minutes. After 30 minutes, the 96 well plate was placed under illumination for 1 hour (at 21° C.). Following illumination, bacterial suspensions were serially diluted and 10 μL of each dilution is spread uniformly on Tryptic Soy Agar (TSA) plates and placed in the dark in an incubator at 28° C. for 48 hours. After 48 hours, bacterial colonies were counted, and the results were log transformed (log colony forming units (CFU)/mL). The relative inactivation was determined by taking the difference between log CFU (PBS control) and log CFU (treatments). Sample Illumination was provided by LED lights (Heliospectra RX30) emitting about 1000 μmol/m^2/s photosynthetically active radiation (PAR).

## Protoporphyrin IX disodium salt [PP IX disodium salt]
[1]; Dark (no light exposure), PBS control 10.1
  Mean Radial Growth: 10.5
[1]; Dark (no light exposure)
  % Inhibition: −3.8%
[1]; Exposed to light for 1 hour (1000 PAR), PBS control 10.2
  Mean Radial Growth: 0.0
[1]; Exposed to light for 1 hour (1000 PAR)
  % Inhibition: 100.0%
[2]; 10 μM + 5 mM NaEDTA in PBS
  log CFU/ml: 3.8 log CFU/ml
[2]; 10 μM in PBS, no chelating agent
  log CFU/ml: 7.4 log CFU/ml
